System: patients with prior myocardial infarction (CARE study)
Test: CARE: association of SNPs with pravastatin treatment in cardiovascular events prevention (logistic regression, odds ratio pravastatin vs placebo by genotype; Table 8)
Type: in vivo, human
Details: for Odds ratio pravastatin vs placebo: All Patients
Text: In order to identify genetic markers associated with acute coronary events (e.g. MI, stroke, unstable angina, congestive heart failure, etc.) or response to statin treatment for the prevention of coronary events, samples from the Cholesterol and Recurrent Events (CARE) study (a randomized multicentral double-blinded trial on secondary prevention of acute coronary events with pravastatin) (Sacks et al., 1991, Am. J. Cardiol. 68: 1436-1446) were genotyped. A well-documented myocardial infarction (MI) was one of the enrollment criteria for entry into the CARE study. Patients were enrolled in the CARE trial from 80 participating study centers. […] Patients were randomized to receive either 40 mg of pravastatin once daily or a matching placebo. The primary endpoint of the trial was death from coronary heart disease and the median duration of follow-up was 5.0 years (range, 4.0 to 6.2 years). […] Secondary endpoints of other related cardiovascular or metabolic disease events, and changes in clinical variables were also recorded in pravastatin-treated and placebo groups. All individuals included in the study had signed a written informed consent form and the study protocol was approved by the respective Institutional Review Boards (IRBs).
For genotyping SNPs in CARE patient samples, DNA was extracted from blood samples using conventional DNA extraction methods such as the QIA-amp kit from Qiagen. Genotypes were obtained on an ABI PRISM® 7900HT Sequence Detection PCR system (Applied Biosystems, Foster City, Calif.) by kinetic allele-specific PCR, similar to the method described by Germer et al. (Germer S., Holland M. J., Higuchi R. 2000, Genome Res. 10: 258-266).
Statistical analysis for association of SNPs with pravastatin treatment in cardiovascular events prevention (Table 8) was carried out using an overall logistic regression model that included an intercept, a parameter for the effect of a genotype containing two rare alleles versus a genotype containing no rare alleles, a parameter for the effect of a genotype containing one rare allele versus a genotype containing no rare alleles, a parameter for the effect of use of pravastatin versus the use of placebo, and parameters for the interaction effects between SNP genotypes and pravastatin use. The test of the overall model is a chi-square test with two degrees of freedom for analyses containing all three genotypes, and one degree of freedom for analyses containing two genotypes.
Effect sizes were estimated through odds ratios (pravastatin group versus placebo) for carriers of each genotype (groups of 0, 1, and 2 minor allele carriers). The effect was considered to be significant if p-value for testing whether any of the interactions between SNP genotypes and pravastatin use were <0.05. […] Odds ratios less than one indicate that the specific SNP allele has a protective effect and odds ratios greater than one indicate that the specific SNP allele has an adverse effect.

[1] = TLR5 hCV15871020, All Patients, 2 Rare Alleles, Prava arm
[2] = TLR6 hCV1180648, All Patients, 0 Rare Alleles, Prava arm
[3] = TLR6 hCV1180648, All Patients, 1 Rare Allele, Prava arm
[4] = TLR6 hCV1180648, All Patients, 2 Rare Alleles, Prava arm
[5] = TNF hCV7514879, All Patients, 0 Rare Alleles, Prava arm
[6] = TNF hCV7514879, All Patients, 1 Rare Allele, Prava arm
[7] = TNF hCV7514879, All Patients, 2 Rare Alleles, Prava arm
[8] = VEGF hCV791476, All Patients, 0 Rare Alleles, Prava arm
[9] = VEGF hCV791476, All Patients, 1 Rare Allele, Prava arm
[10] = VEGF hCV791476, All Patients, 2 Rare Alleles, Prava arm

## CC[C@H](C)C(=O)O[C@H]1C[C@H](O)C=C2C=C[C@H](C)[C@H](CC[C@@H](O)C[C@@H](O)CC(=O)O)[C@H]21 [pravastatin]
[1]
  Fatal/Non-fatal Atherosclerotic CV Disease, n/total (%): (17.6%)
  Hosp. for Cardiovascular Disease, n/total (%): (14.7%)
  Total Cardiovascular Disease Events, n/total (%): (17.6%)
  Total Coronary Heart Disease Events, n/total (%): (11.8%)
TLR5 hCV15871020, Fatal/Non-fatal Atherosclerotic CV Disease, 0 rare alleles
  Odds ratio pravastatin vs placebo: 0.84
TLR5 hCV15871020, Fatal/Non-fatal Atherosclerotic CV Disease, 1 rare allele
  Odds ratio pravastatin vs placebo: 0.68
TLR5 hCV15871020, Fatal/Non-fatal Atherosclerotic CV Disease, 2 rare alleles
  Odds ratio pravastatin vs placebo: 0.14
TLR5 hCV15871020, Hosp. for Cardiovascular Disease, 0 rare alleles
  Odds ratio pravastatin vs placebo: 0.81
TLR5 hCV15871020, Hosp. for Cardiovascular Disease, 1 rare allele
  Odds ratio pravastatin vs placebo: 0.72
TLR5 hCV15871020, Hosp. for Cardiovascular Disease, 2 rare alleles
  Odds ratio pravastatin vs placebo: 0.09
TLR5 hCV15871020, Total Cardiovascular Disease Events, 0 rare alleles
  Odds ratio pravastatin vs placebo: 0.81
TLR5 hCV15871020, Total Cardiovascular Disease Events, 1 rare allele
  Odds ratio pravastatin vs placebo: 0.70
TLR5 hCV15871020, Total Cardiovascular Disease Events, 2 rare alleles
  Odds ratio pravastatin vs placebo: 0.10
TLR5 hCV15871020, Total Coronary Heart Disease Events, 0 rare alleles
  Odds ratio pravastatin vs placebo: 0.86
TLR5 hCV15871020, Total Coronary Heart Disease Events, 1 rare allele
  Odds ratio pravastatin vs placebo: 0.64
TLR5 hCV15871020, Total Coronary Heart Disease Events, 2 rare alleles
  Odds ratio pravastatin vs placebo: 0.10
[2]
  Cardiovascular Mortality, n/total (%): (3.5%)
  Fatal Atherosclerotic Cardiovascular Disease, n/total (%): (3.5%)
  Fatal Coronary Heart Disease, n/total (%): (3.3%)
[3]
  Cardiovascular Mortality, n/total (%): (2.5%)
  Fatal Atherosclerotic Cardiovascular Disease, n/total (%): (2.5%)
  Fatal Coronary Heart Disease, n/total (%): (1.9%)
[4]
  Cardiovascular Mortality, n/total (%): (6.9%)
  Fatal Atherosclerotic Cardiovascular Disease, n/total (%): (6.5%)
  Fatal Coronary Heart Disease, n/total (%): (6.2%)
[5]
  Fatal/Non-fatal MI (def & prob), n/total (%): (10.5%)
  Hosp. for Cardiovascular Disease, n/total (%): (40.9%)
  Total Cardiovascular Disease Events, n/total (%): (42.4%)
  Total Mortality, n/total (%): (6.0%)
[6]
  Fatal/Non-fatal MI (def & prob), n/total (%): (7.7%)
  Hosp. for Cardiovascular Disease, n/total (%): (38.9%)
  Total Cardiovascular Disease Events, n/total (%): (39.4%)
  Total Mortality, n/total (%): (4.7%)
[7]
  Fatal/Non-fatal MI (def & prob), n/total (%): (7.1%)
  Hosp. for Cardiovascular Disease, n/total (%): (35.7%)
  Total Cardiovascular Disease Events, n/total (%): (35.7%)
  Total Mortality, n/total (%): (3.6%)
TNF hCV7514879, Fatal/Non-fatal MI (def & prob), 0 rare alleles
  Odds ratio pravastatin vs placebo: 0.80
TNF hCV7514879, Fatal/Non-fatal MI (def & prob), 1 rare allele
  Odds ratio pravastatin vs placebo: 0.44
TNF hCV7514879, Fatal/Non-fatal MI (def & prob), 2 rare alleles
  Odds ratio pravastatin vs placebo: 0.25
TNF hCV7514879, Hosp. for Cardiovascular Disease, 0 rare alleles
  Odds ratio pravastatin vs placebo: 0.79
TNF hCV7514879, Hosp. for Cardiovascular Disease, 1 rare allele
  Odds ratio pravastatin vs placebo: 0.76
TNF hCV7514879, Hosp. for Cardiovascular Disease, 2 rare alleles
  Odds ratio pravastatin vs placebo: 0.20
TNF hCV7514879, Total Cardiovascular Disease Events, 0 rare alleles
  Odds ratio pravastatin vs placebo: 0.79
TNF hCV7514879, Total Cardiovascular Disease Events, 1 rare allele
  Odds ratio pravastatin vs placebo: 0.73
TNF hCV7514879, Total Cardiovascular Disease Events, 2 rare alleles
  Odds ratio pravastatin vs placebo: 0.20
TNF hCV7514879, Total Mortality, 0 rare alleles
  Odds ratio pravastatin vs placebo: 1.11
TNF hCV7514879, Total Mortality, 1 rare allele
  Odds ratio pravastatin vs placebo: 0.57
TNF hCV7514879, Total Mortality, 2 rare alleles
  Odds ratio pravastatin vs placebo: 0.19
[8]
  Cardiovascular Mortality, n/total (%): (4.2%)
  Fatal Atherosclerotic Cardiovascular Disease, n/total (%): (4.1%)
[9]
  Cardiovascular Mortality, n/total (%): (2.4%)
  Fatal Atherosclerotic Cardiovascular Disease, n/total (%): (2.4%)
[10]
  Cardiovascular Mortality, n/total (%): (2.0%)
  Fatal Atherosclerotic Cardiovascular Disease, n/total (%): (2.0%)
hCV2741051, one rare allele
  odds ratio, pravastatin group vs control group, adverse coronary event: 0.43
  odds ratio, stroke in the pravastatin treated group: 0.21
hCV2741051, two rare alleles
  odds ratio, pravastatin group vs control group, adverse coronary event: 0.26
  odds ratio, stroke in the pravastatin treated group: 0.23

From patent US9932637B2, “Genetic polymorphisms associated with cardiovascular disorders and drug response, methods of detection and uses thereof” (CELERA CORPORATION, priority 2003, dated 2018)
